How the values were obtained:
bovine spermatozoa [1] = test: Fungicide comparison on bovine sperm motility; type: cell-based; settings: Nystatin 100 U/mL, Fluconazole 12.5 mg/L and 25 mg/L; 1, 3, 7, 10 and 14 days at RT in glycine (82.2 mM) medium
Source text: Sperm motility was objectively determined with computer assisted sperm analysis (CASA; IVOS, Hamilton Thorne, Danvers, MA) using the following settings; negative phase-contrast optics, recording rate of 60 frames/s, minimum contrast of 70, minimum cell size of 4 pixels, low size gate of 0.17, high size gate of 2.9, low intensity gate of 0.6, high intensity gate of 1.74, non-motile head size of 10 pixels, non-motile head intensity of 135, progressive VAP threshold of 50 μm/s, slow (static) cells VAP threshold of 20 μm/s, slow (static) cells VSL threshold of 0 μm/s and threshold STR of 75%. […] Cells with a VAP greater than that of the mean VAP of progressive cells were considered ‘rapid’. A minimum of 200 spermatozoa in a minimum of five fields were assessed using 20 μm Leja standard count slides (Gytech, Australia) and a stage temperature of 37° C. […]
Semen was collected, processed and stored according as above (Example 2, Section 1.1). Following 1, 3, 7, 10 and 14 days of storage at RT in the base extender solution as described (Example 2, Experiment 2) supplemented with glycine to a final concentration of 82.2 mM (pH of the medium was 7.9), sperm motility was assessed using CASA as above. Data were analysed using JMP v14 software (ANOVA).

bovine spermatozoa [2] = test: Effects of medium components on bovine sperm motility after 24 hours at RT (Experiment 2); type: cell-based; settings: for total and progressive motilities when 50% of the NaCl was replaced: L-carnitine 100 mM or choline chloride 95 mM; for effect on sperm motility at the 24 h mark as determined by CASA: field conditions, rosiglitazone 0-100 μM, sugar source, coenzyme Q10
Source text: Institutional and New South Wales State Government ethical approval was secured for the use of animal material in this study. This research was based on ejaculates from 17 normozoospermic Angus bulls (between 3 and 7 years of age) of proven fertility, held on institutionally-approved premises at Charles Sturt University ([…], Australia). Semen was collected via electro-ejaculation, and the ejaculate was either left undiluted (Experiment 1) or was immediately diluted (2:1; extender:semen) with INRA96 (Experiments 2 and 3-Sections 2 and 3). […] Equipment and extender medium were maintained at temperatures between 30° C. and 37° C. for the duration of semen collection and dilution. The tubes of extended semen were then held in the laboratory at RT (approx. 20 to 25° C.) for up to 30 min prior to further processing. For Experiment 1, up to 6 mL of the extended semen was either centrifuged directly (700×g for 10 min), or was overlaid on top of BoviPureTM gradient and centrifuged at 700×g for 20 min, and for Experiments 2 and 3 up to 5 mL extended semen was layered on top of PercollTM gradients and centrifuged at 700×g for 30 min. Following centrifugation, the seminal plasma and density gradient media were removed and discarded. Spermatozoa were recovered from the base of the tubes, resuspended in 2 mL BWW and washed via centrifugation (500×g for 5 min) with BWW. These pelleted cells were then resuspended at a concentration of 50×10^6 spermatozoa/mL in the experimental extender media. Sperm motility was objectively determined with computer assisted sperm analysis (CASA; IVOS, Hamilton Thorne, Danvers, MA) using the following settings; negative phase-contrast optics, recording rate of 60 frames/s, minimum contrast of 70, minimum cell size of 4 pixels, low size gate of 0.17, high size gate of 2.9, low intensity gate of 0.6, high intensity gate of 1.74, non-motile head size of 10 pixels, non-motile head intensity of 135, progressive VAP threshold of 50 μm/s, slow (static) cells VAP threshold of 20 μm/s, slow (static) cells VSL threshold of 0 μm/s and threshold STR of 75%. […] Cells with a VAP greater than that of the mean VAP of progressive cells were considered 'rapid'. A minimum of 200 spermatozoa in a minimum of five fields were assessed using 20 μm Leja standard count slides ([…], Australia) and a stage temperature of 37° C.

[3] = Lide, Handbook of Chemistry and Physics, 72nd Edition; cited from earlier work
bovine spermatozoa [4] = test: Comparison of amino acid osmolytes on bovine sperm motility during liquid storage at RT; type: cell-based; settings: for total and progressive motilities compared with other osmolyte treatments: Part 1, 7 days storage at RT, n=10 bulls; for total and progressive motilities compared with other osmolyte treatments / motility by day 14 of storage / loss in motility between 3 and 10 days of storage: 82.2 mM in base solution without NaCl; for motility by day 14 of storage / loss in motility between 3 and 10 days of storage / motility compared with NaCl and choline chloride controls: Part 2; for motility by day 14 of storage / loss in motility between 3 and 10 days of storage: RT; for loss in motility between 3 and 10 days of storage: n=9 bulls; for motility compared with NaCl and choline chloride controls: all time points (3, 7, 10, 14 days) at RT; for capability to prolong bovine sperm motility at room temperature: amino acid as osmolyte in extender medium
Source text: Sperm motility was objectively determined with computer assisted sperm analysis (CASA; IVOS, Hamilton Thorne, Danvers, MA) using the following settings; negative phase-contrast optics, recording rate of 60 frames/s, minimum contrast of 70, minimum cell size of 4 pixels, low size gate of 0.17, high size gate of 2.9, low intensity gate of 0.6, high intensity gate of 1.74, non-motile head size of 10 pixels, non-motile head intensity of 135, progressive VAP threshold of 50 μm/s, slow (static) cells VAP threshold of 20 μm/s, slow (static) cells VSL threshold of 0 μm/s and threshold STR of 75%. […] Cells with a VAP greater than that of the mean VAP of progressive cells were considered ‘rapid’. A minimum of 200 spermatozoa in a minimum of five fields were assessed using 20 μm Leja standard count slides (Gytech, Australia) and a stage temperature of 37° C.
Bull semen (animals were housed at Charles Sturt University, Wagga Wagga, NSW, Australia) was collected via electroejaculation, immediately diluted 2:1 (extender:semen) with equine INRA96™ semen extender, and maintained at room temperature (RT) before further processing. Extended semen was then layered onto a discontinuous (45/90%) Percoll™ gradient and centrifuged at 700×g for 30 min to isolate high quality spermatozoa to be used for storage experiments described below. The high-quality pelleted spermatozoa were then resuspended in modified Biggers, Whitter and Whittingham (BWW) medium (Gibb et al., 2014) and washed again via centrifugation (300×g for 5 min). Pelleted spermatozoa were then resuspended in the various formulations described in each experiment, and stored in 5 mL Sarstedt specimen pots at RT (21-23° C.) in the dark until they were assessed.
This study was undertaken in 2 parts: the first was a screening of soluble amino acids (spermatozoa from split ejaculates of n=10 bulls), and the second was to confirm the results of the first part using only the most successful 3 amino acids (spermatozoa from split ejaculates of n=9 bulls). Sodium chloride and choline chloride were used as osmolyte controls.
The base bovine extender solution described above (Example 1, Experiment 3) was utilised for the purposes of these evaluations, with the exception that the 41.1 mM NaCl was not included in the base solution to which either the test amino acid or choline chlorine was added. Test amino acid was added to the base solution to a final concentration of 82.2 mM whilst the controls contained either the NaCl or choline chloride to a final concentration of 41.1 mM. The initial pH of solutions varied between 7-10 and were adjusted to be between 7.5 and 8.0 with either KOH or HCl. All test media were supplemented with 100 U/ml Nystatin to control fungal growth. Sperm motility was assessed as per Example 1.
For Part 1 of the study, motility was evaluated following 7 days liquid storage at room temperature (RT). Motility of spermatozoa was evaluated at 3, 7, 10 and 14 days liquid storage at RT for Part 2 of the study. Data were again analysed using JMP v14 software (ANOVA).

SMILES: OC(Cn1cncn1)(Cn1cncn1)c1ccc(F)cc1F [Fluconazole]
- difference in sperm motility between antifungal treatments and control with no antifungal (bovine spermatozoa [1]): No significant differences

SMILES: C[N+](C)(C)C[C@H](O)CC(=O)[O-] [L-carnitine]
- total and progressive motilities when 50% of the NaCl was replaced (bovine spermatozoa [2]; 24 hours at RT): improved

SMILES: CC(=O)C(=O)[O-].[Na+] [Sodium pyruvate]
- difference in sperm motility versus absence of the component (bovine spermatozoa [2]; 0.275 mM to 20 mM, 24 hours at RT): No significant difference

SMILES: C[C@H](N)C(=O)O [alanine]
- isoelectric point (pI) [3]: 6.0
- total and progressive motilities compared with other osmolyte treatments (bovine spermatozoa [4]): significantly higher than all other treatments
- motility by day 14 of storage (bovine spermatozoa [4]): significantly declined
- loss in motility between 3 and 10 days of storage (bovine spermatozoa [4]): did not suffer any significant loss in motility
- motility compared with NaCl and choline chloride controls (bovine spermatozoa [4]): significantly higher than both of the controls

SMILES: C[N+](C)(C)CCO.[Cl-] [choline chloride, reference compound]
- total and progressive motilities when 50% of the NaCl was replaced (bovine spermatozoa [2]; 24 hours at RT): improved

SMILES: COC1=C(OC)C(=O)C(C/C=C(\C)CC/C=C(\C)CC/C=C(\C)CC/C=C(\C)CC/C=C(\C)CC/C=C(\C)CC/C=C(\C)CC/C=C(\C)CC/C=C(\C)CCC=C(C)C)=C(C)C1=O [coenzyme Q10]
- effect on sperm motility at the 24 h mark as determined by CASA (bovine spermatozoa [2]): No significant effects

SMILES: N[C@@H](CS)C(=O)O [cysteine]
- isoelectric point (pI) [3]: 5.07
- capability to prolong bovine sperm motility at room temperature (bovine spermatozoa [4]): no or only relatively limited capability

SMILES: O=C(CO)[C@@H](O)[C@H](O)[C@H](O)CO [fructose]
- effect on sperm motility at the 24 h mark as determined by CASA (bovine spermatozoa [2]): No significant effects

SMILES: NCC(=O)O [glycine]
- isoelectric point (pI) [3]: 5.97
- total and progressive motilities compared with other osmolyte treatments (bovine spermatozoa [4]): significantly higher than all other treatments
- motility by day 14 of storage (bovine spermatozoa [4]): significantly declined
- loss in motility between 3 and 10 days of storage (bovine spermatozoa [4]): did not suffer any significant loss in motility
- motility compared with NaCl and choline chloride controls (bovine spermatozoa [4]): significantly higher than both of the controls

SMILES: CC[C@H](C)[C@H](N)C(=O)O [isoleucine]
- isoelectric point (pI) [3]: 6.02
- capability to prolong bovine sperm motility at room temperature (bovine spermatozoa [4]): no or only relatively limited capability

SMILES: CC(C)C[C@H](N)C(=O)O [leucine]
- capability to prolong bovine sperm motility at room temperature (bovine spermatozoa [4]): no or only relatively limited capability

SMILES: CSCC[C@H](N)C(=O)O [methionine]
- isoelectric point (pI) [3]: 5.74
- capability to prolong bovine sperm motility at room temperature (bovine spermatozoa [4]): no or only relatively limited capability

SMILES: N[C@@H](Cc1ccccc1)C(=O)O [phenylalanine]
- isoelectric point (pI) [3]: 5.48
- capability to prolong bovine sperm motility at room temperature (bovine spermatozoa [4]): no or only relatively limited capability

SMILES: O=C(O)[C@@H]1CCCN1 [proline]
- isoelectric point (pI) [3]: 6.3
- capability to prolong bovine sperm motility at room temperature (bovine spermatozoa [4]): no or only relatively limited capability

SMILES: OC[C@H]1O[C@H](OC[C@H]2O[C@H](O[C@]3(CO)O[C@H](CO)[C@@H](O)[C@@H]3O)[C@H](O)[C@@H](O)[C@@H]2O)[C@H](O)[C@@H](O)[C@H]1O [raffinose]
- effect on sperm motility at the 24 h mark as determined by CASA (bovine spermatozoa [2]): No significant effects

SMILES: OC[C@H]1O[C@@](CO)(O[C@H]2O[C@H](CO)[C@@H](O)[C@H](O)[C@H]2O)[C@@H](O)[C@@H]1O [sucrose]
- effect on sperm motility at the 24 h mark as determined by CASA (bovine spermatozoa [2]): No significant effects

SMILES: NCCS(=O)(=O)O [taurine, 2-aminoethane-1-sulfonic acid]
- total and progressive motilities compared with other osmolyte treatments (bovine spermatozoa [4]): significantly higher than all other treatments
- total and progressive motility, taurine compared with valine (bovine spermatozoa [4]; day 3 of liquid storage): better total and progressive motility

SMILES: N[C@@H](Cc1c[nH]c2ccccc12)C(=O)O [tryptophan]
- isoelectric point (pI) [3]: 5.89
- capability to prolong bovine sperm motility at room temperature (bovine spermatozoa [4]): no or only relatively limited capability

SMILES: CC(C)[C@H](N)C(=O)O [valine]
- isoelectric point (pI) [3]: 5.96
- total and progressive motilities compared with other osmolyte treatments (bovine spermatozoa [4]): substantially better
- motility by day 14 of storage (bovine spermatozoa [4]): significantly declined
- loss in motility between 3 and 10 days of storage (bovine spermatozoa [4]): did not suffer any significant loss in motility
- motility compared with NaCl and choline chloride controls (bovine spermatozoa [4]): significantly higher than both of the controls
- motility, valine compared with taurine (bovine spermatozoa [4]; day 14 of liquid storage, data not shown): better motility

Reference: patent publication US20250019648A1, “A SPERM EXTENDER MEDIUM” (MEAT & LIVESTOCK AUSTRALIA LIMITED, priority 2021, published 2025)
